Assays:
Experiment in all cases: minimum inhibitory concentration
Format in all cases: cell-based
[1] = system: Streptococcus pyogenes 421
[2] = system: Staphylococcus aureus ATCC 25923
Proteus vulgaris X = system: Proteus vulgaris X
[3] = system: Escherichia coli NTCT 10418

Minimum inhibitory concentration (MIC) Streptococcus pyogenes 421 [1]: 0.12 | Minimum inhibitory concentration (MIC) Staphylococcus aureus ATCC 25923 [2]: 0.25 | Minimum inhibitory concentration (MIC) Proteus vulgaris X (Proteus vulgaris X): 64 | Minimum inhibitory concentration (MIC) Escherichia coli NTCT 10418 [3]: 128
Structure (SMILES): C/C(=C\C(=O)OCCCCCCCCC(=O)O)C[C@@H]1OC[C@H](C[C@@H]2O[C@H]2[C@@H](C)[C@H](C)O)[C@@H](O)[C@H]1O [Mupirocin]

— patent publication US20170312221A1, “PHARMACEUTICAL PREPARATION AND METHOD OF ITS PRODUCTION AND USE” (priority 2014, published 2017)
